The results in this text go back to patent US9809574B2, “Isoindoline or isoquinoline compounds, a process for their preparation and pharmaceutical compositions containing them” (LES LABORATOIRES SERVIER, priority 2013, dated 2017).

A word on the IC50: it is the concentration needed to halve the response being measured.

One assay has as its target Bcl-2 protein (histag-Bcl-2, UniProtKB P10415) (Homo sapiens (Human), UniProt P10415). Kind of assay: Inhibition of Bcl-2 by the fluorescence polarisation technique. Type of assay: binding. The note with it: fluorescence polarisation test; incubation for 2 hours; read-out: IC50 (nM) Bcl-2 FP. The source says: For partial inhibitors, the percentage fluorescence polarisation inhibition for a given concentration of the test compound is indicated.
For orientation: Fluorescence polarisation rises when a labelled molecule tumbles more slowly, as on binding a larger partner.

Assay [1] has as its system RS4; 11 leukaemia cell line. Kind of assay: In vitro cytotoxicity, Microculture Tetrazolium Assay (MTT). To be noted: Homo sapiens, 11 cells exposed for 48 hours. Type of assay: cell-based. As for the experimental part:
The cytotoxicity studies were carried out on the RS4; 11 leukaemia cell line and on H146 small Cell Lung Carcinoma cell line. The cells are distributed onto microplates and exposed to the test compounds for 48 hours. The cell viability is then quantified by a colorimetric assay, the Microculture Tetrazolium Assay (Cancer Res., 1987, 47, 939-942).

Bcl-2 protein, sequence (P10415 whole entry): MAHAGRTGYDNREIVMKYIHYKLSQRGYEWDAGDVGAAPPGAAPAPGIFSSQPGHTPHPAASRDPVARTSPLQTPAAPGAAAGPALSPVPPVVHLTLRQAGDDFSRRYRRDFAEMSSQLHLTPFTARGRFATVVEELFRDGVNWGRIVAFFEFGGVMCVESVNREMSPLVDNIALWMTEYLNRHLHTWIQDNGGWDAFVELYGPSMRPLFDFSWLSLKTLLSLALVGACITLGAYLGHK

Regarding `C[C@@H]1Cc2ccccc2CN1C(=O)c1cc2c(cc1-c1cc(C(=O)N(C)c3ccc(O)cc3)c3n1CCCC3)CCN(C(=O)Cc1ccc(C#N)cc1)C2` [Example 53, 3-{2-[2-(4-Cyanophenyl)acetyl]-7-[(3R)-3-methyl-1,2,3,4-tetrahydroisoquinoline-2-carbonyl]-1,2,3,4-tetrahydroisoquinolin-6-yl}-N-(4-hydroxyphenyl)-N-methyl-5,6,7,8-tetrahydroindolizine-1-carboxamide], the IC50 at Bcl-2 protein turned out to be 2.4 nM; in assay [1], 5 nM.

With `Cc1ccc(CC(=O)N2CCc3cc(-c4cc(C(=O)N(C)c5ccc(O)cc5)c5n4CCCC5)c(C(=O)N4Cc5ccccc5C[C@H]4C)cc3C2)cc1` [Example 54, N-(4-Hydroxyphenyl)-N-methyl-3-{7-[(3R)-3-methyl-1,2,3,4-tetrahydroisoquinoline-2-carbonyl]-2-[2-(4-methylphenyl)acetyl]-1,2,3,4-tetrahydroisoquinolin-6-yl}-5,6,7,8-tetrahydroindolizine-1-carboxamide], the figures for the IC50 (at Bcl-2 protein; in assay [1]) were 4 nM and 2.4 nM, respectively.

Turning to `CNC(=O)N1Cc2cc(C(=O)N3Cc4ccccc4C[C@H]3C)c(-c3cc(C(=O)N(C)c4ccc(O)cc4)c4n3CCCC4)cc2C1` [Example 55, 5-{1-[(4-Hydroxyphenyl)(methyl)carbamoyl]-5,6,7,8-tetrahydroindolizin-3-yl}-N-methyl-6-[(3R)-3-methyl-1,2,3,4-tetrahydroisoquinoline-2-carbonyl]-2,3-dihydro-1H-isoindole-2-carboxamide], the IC50 on Bcl-2 protein stood at 16 nM; in assay [1] it was 372 nM.

As for `CCS(=O)(=O)N1CCc2cc(-c3cc(C(=O)N(C)c4ccc(O)cc4)c4n3CCCC4)c(C(=O)N3Cc4ccccc4C[C@H]3C)cc2C1` [Example 56, 3-[2-(Ethanesulfonyl)-7-[(3R)-3-methyl-1,2,3,4-tetrahydroisoquinoline-2-carbonyl]-1,2,3,4-tetrahydroisoquinolin-6-yl]-N-(4-hydroxyphenyl)-N-methyl-5,6,7,8-tetrahydroindolizine-1-carboxamide], the IC50 on Bcl-2 protein was 3.8 nM; in assay [1], 59 nM.

For `CCN1CCc2cc(-c3cc(C(=O)N(C)c4ccc(O)cc4)c4n3CCCC4)c(C(=O)N3Cc4ccccc4C[C@H]3C)cc2C1` [Example 57, 3-{2-Ethyl-7-[(3R)-3-methyl-1,2,3,4-tetrahydroisoquinoline-2-carbonyl]-1,2,3,4-tetrahydroisoquinolin-6-yl}-N-(4-hydroxyphenyl)-N-methyl-5,6,7,8-tetrahydroindolizine-1-carboxamide], the IC50 at Bcl-2 protein was found to be 65 nM; in assay [1] it was 1250 nM.

For `C[C@@H]1Cc2ccccc2CN1C(=O)c1cc2c(cc1-c1cc(C(=O)N(C)c3ccc(O)cc3)c3n1CCCC3)CCN(C(=O)Oc1ccc(N)cc1)C2` [Example 58, 4-Aminophenyl 6-{1-[(4-hydroxyphenyl)(methyl)carbamoyl]-5,6,7,8-tetrahydroindolizin-3-yl}-7-[(3R)-3-methyl-1,2,3,4-tetrahydroisoquinoline-2-carbonyl]-1,2,3,4-tetrahydroisoquinoline-2-carboxylate], the results for the half-maximal inhibitory concentration (IC50) (on Bcl-2 protein; in assay [1]) were 4.2 nM and 3.3 nM, respectively.

On to `CC(=O)Nc1ccc(OC(=O)N2CCc3cc(-c4cc(C(=O)N(C)c5ccc(O)cc5)c5n4CCCC5)c(C(=O)N4Cc5ccccc5C[C@H]4C)cc3C2)cc1` [Example 59, 4-Acetamidophenyl 6-{1-[(4-hydroxyphenyl)(methyl)carbamoyl]-5,6,7,8-tetrahydroindolizin-3-yl}-7-[(3R)-3-methyl-1,2,3,4-tetrahydroisoquinoline-2-carbonyl]-1,2,3,4-tetrahydroisoquinoline-2-carboxylate], for which the IC50 at Bcl-2 protein is 3.2 nM; in assay [1], 6.8 nM.

Turning to `C[C@@H]1Cc2ccccc2CN1C(=O)c1cc2c(cc1-c1cc(C(=O)N(C)c3ccc(O)cc3)c3n1CCCC3)CN(C(=O)Nc1ccccc1)C2` [Example 60, 5-{1-[(4-Hydroxyphenyl)(methyl)carbamoyl]-5,6,7,8-tetrahydroindolizin-3-yl}-6-[(3R)-3-methyl-1,2,3,4-tetrahydroisoquinoline-2-carbonyl]-N-phenyl-2,3-dihydro-1H-isoindole-2-carboxamide], the values for the IC50 (on Bcl-2 protein; in assay [1]) were 5.9 nM and 46 nM, respectively.

For the molecule `C[C@@H]1Cc2ccccc2CN1C(=O)c1cc2c(cc1-c1cc(C(=O)N(C)c3ccc(O)cc3)c3n1CCCC3)CN(C(=O)NCc1ccccc1)C2` [Example 61, N-Benzyl-5-{1-[(4-hydroxyphenyl)(methyl)carbamoyl]-5,6,7,8-tetrahydroindolizin-3-yl}-6-[(3R)-3-methyl-1,2,3,4-tetrahydroisoquinoline-2-carbonyl]-2,3-dihydro-1H-isoindole-2-carboxamide], the IC50 at Bcl-2 protein was 4.4 nM; in assay [1], 85 nM.

As to `C[C@@H]1Cc2ccccc2CN1C(=O)c1cc2c(cc1-c1cc(C(=O)N(C)c3ccc(O)cc3)c3n1CCCC3)CN(C(=O)OCc1ccccc1)C2` [Example 62, Benzyl 5-{1-[(4-hydroxyphenyl)(methyl)carbamoyl]-5,6,7,8-tetrahydroindolizin-3-yl}-6-[(3R)-3-methyl-1,2,3,4-tetrahydroisoquinoline-2-carbonyl]-2,3-dihydro-1H-isoindole-2-carboxylate], the IC50 turned out to be 20 nM on Bcl-2 protein and 113 nM in assay [1].

As for `Cc1c(C(=O)N(C)c2ccc(O)cc2)cc(-c2cc3c(cc2C(=O)N2Cc4ccccc4C[C@H]2C)CN(C(=O)Oc2ccccc2)C3)n1C` [Example 63, Phenyl 5-{4-[(4-hydroxyphenyl)(methyl)carbamoyl]-1,5-dimethyl-1H-pyrrol-2-yl}-6-[(3R)-3-methyl-1,2,3,4-tetrahydroisoquinoline-2-carbonyl]-2,3-dihydro-1H-isoindole-2-carboxylate], the results for the IC50 (on Bcl-2 protein; in assay [1]) were 4.4 nM and 12 nM, respectively.

As to `C[C@@H]1Cc2ccccc2CN1C(=O)c1cc2c(cc1-c1cc(C(=O)N(C)c3ccc(O)cc3)c3n1CCCC3)CN(C(=O)OCc1cnc3[nH]ccc3c1)C2` [Example 64, 1H-pyrrolo[2,3-b]pyridin-5-ylmethyl 5-{1-[(4-hydroxyphenyl)(methyl)carbamoyl]-5,6,7,8-tetrahydroindolizin-3-yl}-6-[(3R)-3-methyl-1,2,3,4-tetrahydroisoquinoline-2-carbonyl]-2,3-dihydro-1H-isoindole-2-carboxylate], the IC50 is 27 nM on Bcl-2 protein and 204 nM in assay [1].

Turning to `C[C@@H]1Cc2ccccc2CN1C(=O)c1cc2c(cc1-c1cc(C(=O)N(C)c3ccc(O)cc3)c3n1CCCC3)CN(C(=O)Nc1ccc(N3CCN(C)CC3)cc1)C2` [Example 65, 5-{1-[(4-Hydroxyphenyl)(methyl)carbamoyl]-5,6,7,8-tetrahydroindolizin-3-yl}-6-[(3R)-3-methyl-1,2,3,4-tetrahydroisoquinoline-2-carbonyl]-N-[4-(4-methylpiperazin-1-yl)phenyl]-2,3-dihydro-1H-isoindole-2-carboxamide], the IC50 at Bcl-2 protein is 6.5 nM; in assay [1], 51 nM.

Take `C[C@@H]1Cc2ccccc2CN1C(=O)c1cc2c(cc1-c1cc(C(=O)N(C)c3ccc(O)cc3)c3n1CCCC3)CN(C(=O)N1CCC(c3ccccc3)C1)C2` (stereo partly drawn) [Example 66, N-(4-Hydroxyphenyl)-N-methyl-3-{6-[(3R)-3-methyl-1,2,3,4-tetrahydroisoquinoline-2-carbonyl]-2-(3-phenylpyrrolidine-1-carbonyl)-2,3-dihydro-1H-isoindol-5-yl}-5,6,7,8-tetrahydroindolizine-1-carboxamide]: the results for the IC50 (at Bcl-2 protein; in assay [1]) were 16 nM and 80 nM, respectively.
